Patent publication US5100776A, “Immunological detection process for herbicides” (Dr. Pfeiffer Bioanalytik KG, priority 1987, dated 1992)

The compounds below were run on antibody (high specificity for atrazine) (assay: Cross-reactivity of triazines and other herbicides in competitive enzyme immunoassay (inhibition of enzyme tracer binding)). Conditions: Cross-activity at a concentration of 2 ppb; inhibition of the enzymatic detection system.
Parameters: species or system rabbits
Source text: For the preparation of an antibody A, which is preferably directed against the side [drawing 3] of the atrazine molecule, at first the methylthioether group of the triazine ametryn is sulfoxidized with peroxy acid and then the modified ametryn is coupled directly with the beef serum albumin. In the analogous way, for the development of an antibody B, which is preferentially directed against the side: [drawing 4] of the atrazine molecule, one of the ethylamino groups of the triazine simazine is bonded by the carbodiimide process to the protein. Lastly an antibody C which preferably responds to the side: [drawing 5] of the atrazine is produced by coupling the herbicide propazine via one of the isopropylamino groups with the carrier matrix.
The conjugates prepared as above are inoculated for the generation of antibodies A, B and C in laboratory animals (rabbits) which are then extracted from the sera of the immunized animals by known processes or by affinity chromatography by substituents according to formula (I).
The antibodies obtained are adsorbed on the polystyrene surface of the microtiter cavities. To this end, the antibodies are dissolved in carbonate buffer (Na2 CO3 /NaHCO3 : 50 mmol/liter; pH 9.6) and respectively 0.25 ml of the solution obtained is pipetted into the individual cavities of the microtiter plate. In the following incubation takes place overnight at room temperature and washing takes place next day with TBS buffer. The well covered plates are then stored dry at -20° C. For analysis 180 μl of the aqueous sample to be investigated (concentration of the substance investigated is from 1 μg/l to 200 mg/l) are poured into the cavities and respectively 50 μl enzyme tracer, a conjugate of alkaline phosphatase and a triazine, which is selected depending on the type of the antibody, are added in the cavities. If the detection is carried out with antibody A, ametryn is coupled with the enzyme, but if antibody B or antibody C are present, simazine or propazine are used.
The solutions are mixed by brief horizontal shaking of the microtiter plate. After a further incubation period of 1 hour at 20° C., by washing with TBS buffer (50 mmol/l tris-(hydroxymethyl)-aminomethane, 1 mmol/l MgCl2, 50 mmol/l NaCl, pH 7.8 with HCl, 0.05% of polyoxyethylene sorbitan monooleate) all the molecules which are not bonded on the antibody positions are removed. For the quantitative detection of the bonded enzyme tracer, respectively 125 μl phosphatase substrate solution (1 mg p-nitrophenylphosphate per ml carbonate buffer) are poured into the individual cavities. The enzyme reaction takes place at 20° C., but can be accelerated by incubation at higher temperature. The absorption of the solution in the individual cavities is measured by a vertical ray photometer on the wavelength […]. If it is wished to move into the range of higher sensitivities, overnight incubation at 4° C. is recommended. But it must be recalled that without special demands on reagent, device and spatial unit reproducible results in the ppt range are not attainable. The computation of the antigen concentration of the sample is based on the following background. The enzyme tracer bonds at first with the free antibody bonding positions, which are left over after incubation with the sample antigen. Thus in the presence of high concentrations of sample antigen only few enzyme tracers are bonded, but with lower concentration of sample antigens, on the other hand, many enzyme tracers are bonded. The amount of the bonded enzyme tracer is therefore a function of the sample antigen concentration. The absorption of the reacted substrate amount (color reaction from colorless to yellow) is used as the measurement magnitude for the bonding of the enzyme tracer.
Absorption ratio of unknown sample (B=AB AuB) and zero sample (BO=ABO -AuB):
B/BO=(AB -AuB l)/(ABO -AuB) […]

| SMILES | inhibition (%) |
| --- | --- |
| CSc1nnc(C(C)(C)C)c(=O)n1N [metribuzine] | 6.7 |
| CCC(C)n1c(=O)[nH]c(C)c(Br)c1=O (stereo not drawn) [bromazile] | 11.1 |
| CSc1nc(N)nc(NC(C)C)n1 [desethylametryn] | 16.8 |
| CCNc1nc(N)nc(SC)n1 [desisopropylametryn] | 16.5 |
| O=C(Oc1ccccc1)n1c(C(F)(F)F)nc2cc(Cl)c(Cl)cc21 [fenazaflor] | 4.4 |
| CCNc1nc(NC(C)C)nc(SC)n1 [ametryn] | 21.4 |
| CCNc1nc(Cl)nc(NC(C)C)n1 [atrazine, 2-chloro-4-ethylamino-6-isopropylamino-1,3,5-triazine] | 6.0 |
| CNC(=O)N(C)c1nc2ccccc2s1 [metabenzthiazuron] | 8.3 |
| Cc1cccc(C)c1N(Cn1cccn1)C(=O)CCl [metazachlor] | 15.2 |
